Measured values: patent US8058228B2, “Leptin peptide antagonists” (Boston Biomedical Research Institute, priority 2004, dated 2011)

Test system: OB-R
Assay: LIF-R expression by rabbit endometrial cells (immunocytochemistry, Western blot)
Format: cell-based
Details: leptin 3 nM; for effect on leptin up-regulation of LIF-R expression: rESC (immunocytochemistry) and rEEC (Western blot), LPA-2 30 and 120 nM; for LIF-R expression after leptin: rESC and rEEC
Protocol: Rabbit endometrial cells (5×10^5 cells/well) were cultured for 5-9 days in DMEM-MCDB105 (3:1) medium containing 10% fetal bovine serum (FBS), 5 μg/ml insulin, 1% amphopthericin B, 100 μg/ml streptomycin and 100 U/ml penicillin until confluent layers were obtained. The cells were washed twice with 100 mM phosphate saline buffer (PBS) −2% BSA (w/v), pH 7.2 and cultured for an additional 2 days in the same medium but without FBS (basal medium). This procedure was performed to reduce any effects of cytokines from FBS on the phosphorylation rate of Stat3 as well as the expression of other cytokines and their receptors. Cells were washed as described before and cultured in basal medium containing leptin (0-10 nM), OB-R antibody (1-20 μg/ml) and/or LPA-2 peptides (0-300 nM). Cultures were stopped at 24 h and the cells were used for immunocytochemistry, binding studies and western blot analysis. The conditioned media were collected, lyophilized and stored at −80° C. for ELISA determinations. Duplicate wells were run for each treatment and the experiments repeated at least three times with different cell preparations from different rabbits. Controls were the same cellular preparations cultured in basal medium containing non-specific goat IgGs and LPA-2Sc.
The rabbit endometrial cells were cultured as described above in duplicate on 8-well glass-bottom culture plates (Nalgene Nunc International, Naperville, Ill.) and fixed with methanol at −20° C. for 20 min for immunocytochemical studies. All the antibodies tested were diluted in PBS-2% BSA (w/v; buffer A).
Anti IL-1R tl (1 μg/ml), anti LIF-R (2 μg/ml), anti vimentin (1:50), anti cytokeratin (1:50) and anti p-Stat3 (1 μg/ml) antibodies were used to assess the expression of the respective antigens by rEEC and rESC cultures. After incubation with primary antibodies the cells were incubated with a streptavidin-biotin-alkaline phosphatase system according to the manufacturer directions (Vectastain, ABC-AP kit, Vector Laboratories, Burlingame, Calif.) and counter-stained with hematoxylin (Dako). Negative controls included cell preparations in which the primary antibodies were substituted by irrelevant species matched IgGs.
After culture in the presence of leptin, LPAs or antibodies, the endometrial cells were washed with ice-cold PBS and lysed by homogenization on ice with lysis buffer [[…] Tris, pH 7.4, containing […] NaCl, 2 mM EDTA, 10% glycerol, 50 mM β-glycerophosphate, […] NaF, 1% Nonidet P-40, 2 mM phenyl-methylsulfonyl fluoride, 2 mM sodium orthovanadate, 100 μM antipain, 0.1 mg/ml trypsin inhibitor and protease cocktail inhibitor 1:50 (Sigma)]. […] Protein concentrations were determined using the Bradford protein assay (BioRad Laboratories Inc., Hercules, Calif.). […]

Row | Substance | effect on leptin up-regulation of LIF-R expression | LIF-R expression after leptin | LIF-R expression after leptin (listed as Leptin)
1 | SRNVIQISNDLENLRDLLHVLAFSKS [LPA-2, 26 amino acid peptide, residues 70-95 of helix III of the human leptin molecule; leptin peptide antagonist] | totally inhibited the leptin effect on LIF-R expression | – | –
2 | leptin: human recombinant leptin (R&D Systems), OB-R ligand used as stimulus | – | up-regulates the expression of LIF-R | significantly increases the expression of LIF-R
3 | VAEVLNRSDLIQRISFSLDLNNSKLH [LPA-2Sc, scrambled version of LPA-2, negative control, reference compound] | did not prevent the leptin up-regulation of LIF-R | – | –
